{"source": "patent US20250123268A1", "about": "“COMPOSITIONS AND METHODS FOR ACCELERATING DEVELOPMENT OF CANCER THERAPEUTICS” (NetNoids Rx Laboratories, LLC, priority 2023, published 2025)", "key": {"[1]": {"system": "TNBC-1", "experiment": "COMPASS C1/C3a/C3c drug regimen testing, TNBC-1 tumor volume", "format": "cell-based, human", "conditions": "for tumor volume (efficacy): 50 nM & 500 nM", "experimental": "Methods: COMPASS Platforms for TIME Modeling for Drug Regimen Testing: I.A. C1/C3a/C3c for TNBC-1 against 1) Doxorubicin 50 nM & 500 nM (Control: DMSO 0.01%), 2) Sacituzumab 5 nM & 20 nM [Control: PBS 0.01%] via continuous treatment w/initial administration at post-seeding Day 1; I.B. C2/C3b/C3d for GBC-1 against 1) Gemcitabine+Cisplatin 1 μM & 10 μM (G+C 7:1 ratio) (Control: DMSO 0.03%) 2) Gemcitabine+Cisplatin 1 μM+Durvalumab 0.1 nM; Gemcitabine+Cisplatin 10 μM+Durvalumab 1 nM (Control: DMSO 0.03%) (G+C 7:1 ratio) via continuous treatment w/initial administration at post-seeding Day 3; II. C1/C3b/C3d for HUAS-1 against 1) HSP90i 50 nM & 100 nM, (Control: DMSO 0.01-0.5%), 2) HSP90i 50 nM+Doxorubicin 50 nM & HSP90i 100 nM+Doxorubicin 50 nM, (Control: DMSO 0.01-0.5%) via continuous treatment w/initial administration at post-seeding Day 3; • Experimental Set-Up: Series (C1/C2) & representative parallel experimentation (C3), n=3 per group; • Evaluation: Imaging—Phase Contrast Imaging via Biotek Cytation 5 (Agilent) with partial well plug for object selection ([…] for C1/C2 & […] for C3) towards tumor volume analysis at Timepoints Day 3 and Day 7/10; • Statistics: One-way ANOVA followed by Tukey's pairwise comparison, n=3, (p<0.05).\nFIGS. 28A-L: Common Cancers (TNBC and GBC) vs Established Drug Regimens (Doxorubicin/Sacituzumab and Gemcitabine+Cisplatin+/−Durvalumab, respectively) treatment profiles across progressing, appropriately-matched COMPASS Platforms at Day 3 and Day 10 Timepoints. Compass 1 is used for small molecules. Compass 2 is used in studies when Durvalumab (which is an anti-PDL 1 inhibitor) is added and it works by using the immune system (checkpoint inhibitor), which makes the immune system […]. Sub-studies highlighting the versatility of COMPASS platforms in the generation of specific Tumor-Immune-Microenvironment Models—designed appropriately for intended drug mechanism testing of already clinically-approved treatment regimens. […]"}, "[2]": {"system": "PDL-1 positive PDT of TNBC", "experiment": "PDL-1 positive TNBC PDT tumor volume, anti-PD1 treatment, with/without PBMCs (COMPASS 2)", "format": "cell-based, human", "conditions": "same model without the addition of PBMCs", "protocol": "All experiments were conducted with n=3 replicates and data was analyzed by One Way ANOVA followed by student's t-test to check for statistical significance."}}, "note": "“Also recorded” adds a separate entry of the source."}
{"molecule": "COc1cccc2c1C(=O)c1c(O)c3c(c(O)c1C2=O)C[C@@](O)(C(=O)CO)C[C@@H]3O[C@H]1C[C@H](N)[C@H](O)[C@H](C)O1", "note": "[Doxorubicin]", "values": [{"measurement": "tumor volume (efficacy)", "setting": "[1]; C1 model", "result": "slight efficacy"}, {"measurement": "tumor volume (efficacy)", "setting": "[1]; C3 models", "result": "potential resistance"}]}
{"molecule": "Pembrolizumab [anti-PD1 inhibitor]", "values": [{"measurement": "immune checkpoint mediated reduction in tumor volume", "setting": "[2]", "result": "not observed"}]}
{"molecule": "Sacituzumab", "values": [{"measurement": "tumor volume vs control", "setting": "[1]; 5 nM & 20 nM, supplemental structural matrix & oxygenation (C3c), p=0.04", "result": "revealed efficacy in oxygenated conditions; also recorded: tumor volume reduction vs control"}]}
